Test results reported in patent US8853194B2, “Sterol derivatives and their synthesis and use” (priority 2009, dated 2014).

Tests used:
VEGF = settings: positive CTX control group, OD at 450 nm
Description: Before taking tumors out, blood was collected by eye bleeding from mice in the four groups, i.e. the negative control group, the positive CTX control group, the high dose (32 mg/kg) group and the low dose (16 mg/kg) group.
1.1 Preparing reagents, samples and standards;
1.2 Adding the prepared samples and standards, and reacting for 90 minutes at 37° C.;
1.3 Washing the plate twice, adding biotinylated antibody working solution, and reacting for 60 minutes at 37° C.;
1.4 Washing the plate for three times, adding ABC working solution, and reacting for 30 minutes at 37° C.;
1.5 Washing the plate for five times, adding TMB color liquid, and reacting in dark for 15 minutes at 37° C.;
1.6 Adding TMB stop solution, and measuring OD value at 450 nm.

mouse sarcoma cells S180 = settings: 0.02 g/(Kg.d) i.p.
Description: (§1) Ascites mice S180 and H22 that had been vaccinated 7 days were sacrificed by cervical, from which ascites were obtained under sterile conditions respectively; the obtained ascites were washed twice with culture medium RPMI1640, and prepared to a 2×10^7/ml suspension in sterile physiological saline. The suspension of cell S180 was inoculated subcutaneously in the right axillas of 40 mice (0.1 ml/mouse) to produce solid tumor models; while the suspension of cell H22 was inoculated in abdominal cavities of 40 mice (0.2 ml/mouse) by conditional means under sterile conditions to produce ascites tumor models.
(§2) 90 mice were randomly divided into 9 groups of 3 types, wherein the first type group was a normal control group, the second type groups were S180 solid tumor groups including a positive (cyclophosphamide) control group, a negative control group, a low dose group and a high dose group, and the third type groups were H22 ascites groups including a positive (cyclophosphamide) control group, a negative control group, a low dose group and a high dose group. There were 10 mice in each group. The experiment was repeated for three times.
(§3) […], the negative control group was injected same volume of corn oil, and the positive control group was injected cyclophosphamide injection solution with the dose of 0.02 g/(Kg.d). The used injection volume was 0.1 ml/mouse and the injection was given as intraperitoneal injection every other day for 15 days. During the 15 days, general activities, fur, feces, etc. of the mice were daily observed. 24 hours after the last administration, mice that had been inoculated subcutaneously with S180 were sacrificed by cervical, from which tumors, thymus and spleen were taken out. After the last administration, mice that had been inoculated in abdominal cavities with H22 were conventionally bred continually, weighted and observed the survival time every day until all the mice in the negative group were dead.
(§4) After finishing the administration in all mice in the solid tumor group, the mice were sacrificed and their spleens and livers were weighed by electronic balance. The spleen index was equivalent to the spleen weight (mg) of mice in each group divided by the weight of the mice, while the liver index was equivalent to the liver weight […] divided by the weight (g) of the mice.
On the next day after drug withdrawal, the mice in the solid-tumor […] group were weighed and sacrificed by cervical, wherein the serum was collected by eye bleeding for later use in subsequent experiments. Tumor tissues were dissected and weighed by electronic balance. The tumor inhibition rate was calculated as follows. Tumor Inhibition Rate(%)=[(mean tumor weight of negative control group−mean tumor weight of treatment group)/mean tumor weight of control group]×100%

mouse hepatoma cells H22 = settings: 0.02 g/(Kg.d) i.p.
Description: as §1, §2, §3
24 hours after the inoculation of ascites, the weight and the amount of abdominal circumference of the mice in the groups of ascites models were measured. The drug administration and breeding were continued according to different groups, the weight and the abdominal circumference were measured daily until one day before death. The weight increase (g) and abdominal-circumference increase (cm) were calculated. The experiment started on the day of tumor inoculation and ended on the day when all the mice in the negative control group were dead; the time of deaths were recorded, and the survival extending rate was calculated. Survival Extending Rate(%)=[(mean survival days of treatment group−mean survival days of negative control group)/mean survival days of control group]×100%
as §4

CAM vessels = assay: CAM assay, effect on tumor angiogenesis; type: in vivo, German Roman embryonated eggs; settings: 4 ug/embryo, 72 hours incubation
Description: A sterile gelatin sponge, previously made into disks with diameter of 5 mm by a hole puncher, was used as sample carrier. […] There were 3 dose groups, wherein 5 μl (low dose group, with a dose volume of 2 μg/embryo), 10 μl (middle dose group, with a dose volume of 4 μg/embryo), and 20 μl (high dose group, with a dose volume of 8 μg/embryo) of the solution were added respectively into gelatin sponge slices by a quantitative liquid transfer. The sponge slices were dried in the sterile environment.
A sterilized egg was placed into a 37° C. incubator with its air chamber upward. In the 7th day, the embryo was positioned on a super-clean bench and sterilized by ethanol, and then it was drilled by a dental drill to form a little hole in the top of the embryo. Egg shell and shell membrane around the hole were carefully removed to form an opening of about 1.2 cm×1.2 cm; after determining a sample-adding site, the air chamber membrane was carefully pricked at the separation place between the chamber and the yolk by a syringe needle; through the prick hole 1-2 drops of sterilized water was injected, which made the chamber membrane and the CAM membrane be separated; after gently removing the upper layer of the chamber membrane with forceps, the CAM membrane in the lower layer was exposed.
A drug-containing carrier was placed, at the junction area of the CAM membrane and the yolk sac membrane, on a site where vessels were less, and then sealed with sterilized transparent adhesive tape to continue to incubate for 72 hours.
After the incubation, the transparent adhesive tape stopped on the top of the air chamber was gently removed by forceps; a mixture of methanol/acetone (1:1, 1-2 ml) was gently added; the room temperature was remained constant for 10 minutes. Then, the CAM membrane was carefully peeled off and placed on a glass slide for observing and taking photos. The effect of the compound on angiogenesis was assessed by counting the numbers of large, middle, small blood vessels radiated by the carrier.

SMILES | OD value of serum VEGF (VEGF) | Liver index (100 g/g) (mouse sarcoma cells S180; S180 mice) | Spleen index (mg/g) (mouse sarcoma cells S180; S180 mice) | Tumor inhibition rate (%) (mouse sarcoma cells S180; S180 sarcoma mice) | Tumor weight (g) (mouse sarcoma cells S180; S180 sarcoma mice) | Weight increase (g) (mouse sarcoma cells S180; S180 sarcoma mice) | Abdominal circumference increase (cm) (mouse hepatoma cells H22; H22 ascites mice) | Survival extending rate (%) (mouse hepatoma cells H22; H22 ascites mice) | Survival time (day) (mouse hepatoma cells H22; H22 ascites mice) | Weight increase (g) (mouse hepatoma cells H22; H22 ascites mice) | Weight increase (mouse hepatoma cells H22; H22 ascites mice, listed as cyclophosphamide) | Liver index (100 g/g) (mouse hepatoma cells H22; ascites mice) | Spleen index (mg/g) (mouse hepatoma cells H22; ascites mice) | Large vessels (number of the vessels) (CAM vessels) | Middle vessels (number of the vessels) (CAM vessels) | Small vessels (number of the vessels) (CAM vessels)
O=P1(N(CCCl)CCCl)NCCCO1 (stereo not shown) [Cyclophosphamide, reference compound] | 0.2205 ± 0.0238 | 3.09 ± 0.31^(1)(4) 100 g/g | 2.76 ± 0.64^(1)(4) mg/g | 62.63% | 0.518 ± 0.231^(4) g | 4.76 ± 1.01^(1)(3) g | 2.30 ± 0.66^(2)(4) cm | 57.73% | 15.3 ± 1.06^(4) day | 3.42 ± 1.67^(2)(4) g | 3.42 g | 3.26 ± 0.27^(1)(4) 100 g/g | 2.45 ± 0.34^(1)(4) mg/g |  |  | 
Cc1ccc(C(=O)Nc2ccc(S(=O)(=O)O)c3cc(S(=O)(=O)O)cc(S(=O)(=O)O)c23)cc1NC(=O)c1cccc(NC(=O)Nc2cccc(C(=O)Nc3cc(C(=O)Nc4ccc(S(=O)(=O)O)c5cc(S(=O)(=O)O)cc(S(=O)(=O)O)c45)ccc3C)c2)c1 [Suramin, reference compound] |  |  |  |  |  |  |  |  |  |  |  |  |  | 3.6 ± 2.0 | 12.4 ± 3.8 | 6.1 ± 3.0
